Where “and” joins values, the source holds several entries; their conditions need not be identical. Equal values may be shown once.

The source of these data is patent US9505796B2, “Phosphorylated A2A receptor agonists” (Crozet Medical GMBH, priority 2006, dated 2016).

Assay [1] addresses T1, A1 receptor rat brain cortical membranes (Rattus norvegicus, UniProt P25099).
T1 construct: A1 receptor rat brain; from tissue; host or cells: rat brain cortical membranes
T1 sequence (P25099 1-326): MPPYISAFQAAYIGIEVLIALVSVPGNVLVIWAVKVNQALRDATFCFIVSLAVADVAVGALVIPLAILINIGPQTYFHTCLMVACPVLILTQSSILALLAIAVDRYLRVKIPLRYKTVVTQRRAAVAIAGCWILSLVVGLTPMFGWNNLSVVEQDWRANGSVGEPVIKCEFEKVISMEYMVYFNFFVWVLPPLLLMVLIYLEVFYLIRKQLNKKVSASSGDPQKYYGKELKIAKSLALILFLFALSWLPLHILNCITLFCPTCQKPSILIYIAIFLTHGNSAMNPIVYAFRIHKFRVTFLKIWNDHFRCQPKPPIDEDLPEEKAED
The experiment in a line: A1 adenosine receptor radioligand binding vs. [3H]CCPA. Conditions: rat brain cortical membranes vs. [3H]CCPA (agonist radioligand). From the text: (§1) Tris was obtained from Acros Organics (Leverkusen, Germany); DMSO was from Fluka (Switzerland), HCl was from Merck, HAT supplement from Gibco. [^3H]CCPA ([^3H]2-chloro-N^6-cyclopentyladenosine), [^3H]MSX-2 ([^3H]3-(3-hydroxypropyl)-7-methyl-8-(m-methoxy-styryl)-1-propargylxanthine) (84 Ci/mmol), and [^3H]DSB-11 ([^3H]8-ethyl-4-methyl-2-phenyl-(8R)-4,5,7,8-tetrahydro-1H-imidazo[2,1-i]-purin-5-one (53 Ci/mmol)) were custom-labeled by Amersham. All other chemical reagents, cell culture materials and adenosine receptor ligands were obtained from Sigma.
(§2) Radioligand binding studies were performed as previously described.^7,8

In assay [2] the target is T2, A3 receptor human recombinant receptors expressed in CHO cells (Homo sapiens, UniProt P0DMS8).
T2 construct: expressed in transfected cells; host or cells: CHO cells
T2 sequence (P0DMS8 1-318): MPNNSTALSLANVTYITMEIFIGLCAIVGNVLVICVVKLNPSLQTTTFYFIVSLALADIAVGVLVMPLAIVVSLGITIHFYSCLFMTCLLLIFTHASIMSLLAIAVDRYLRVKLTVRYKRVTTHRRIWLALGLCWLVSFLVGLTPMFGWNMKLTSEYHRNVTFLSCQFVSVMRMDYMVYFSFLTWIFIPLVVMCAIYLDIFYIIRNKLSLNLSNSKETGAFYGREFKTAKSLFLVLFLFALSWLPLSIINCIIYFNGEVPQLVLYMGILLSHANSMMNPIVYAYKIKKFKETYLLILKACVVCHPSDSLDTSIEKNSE
The experiment in a line: A3 adenosine receptor radioligand binding vs. [3H]PSB-11. The settings on record: human recombinant receptors in CHO cells vs. [3H]PSB-11 (antagonist radioligand; agonist affinities underestimated).
Excerpt: as §1, §2

Assay [3] deals with T3, A2A receptor rat brain striatal membranes (Rattus norvegicus, UniProt P30543).
T3 construct: A2A receptor rat brain; from tissue; host or cells: rat brain striatal membranes
T3 sequence (P30543 whole entry): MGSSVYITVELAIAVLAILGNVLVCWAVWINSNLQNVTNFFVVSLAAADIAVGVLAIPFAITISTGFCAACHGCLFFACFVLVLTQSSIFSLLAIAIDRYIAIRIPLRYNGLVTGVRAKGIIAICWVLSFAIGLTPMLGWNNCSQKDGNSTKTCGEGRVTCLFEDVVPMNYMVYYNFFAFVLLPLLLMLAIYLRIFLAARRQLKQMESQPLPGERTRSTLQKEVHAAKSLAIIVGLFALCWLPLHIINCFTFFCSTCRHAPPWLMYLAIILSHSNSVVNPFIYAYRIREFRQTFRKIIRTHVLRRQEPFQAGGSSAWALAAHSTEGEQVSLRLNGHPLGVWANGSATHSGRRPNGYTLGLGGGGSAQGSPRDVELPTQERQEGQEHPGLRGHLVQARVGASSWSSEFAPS
The experiment in a line: A2A adenosine receptor radioligand binding, rat brain striatal membranes.
Excerpt: as §1, §2

Assay [4] concerns the target T4, recombinant soluble glutathione-S-transferase/ecto-5′-nucleotidase fusion protein (rat enzyme) (Rattus norvegicus, UniProt P21588).
T4 construct: Catalytically active recombinant soluble glutathione-S-transferase/ecto-5′-nucleotidase fusion protein; Dr. Herbert Zimmermann, University of Frankfurt (gift); host or cells: insect cells, baculovirus system
T4 sequence (P21588 29-551 limits assumed): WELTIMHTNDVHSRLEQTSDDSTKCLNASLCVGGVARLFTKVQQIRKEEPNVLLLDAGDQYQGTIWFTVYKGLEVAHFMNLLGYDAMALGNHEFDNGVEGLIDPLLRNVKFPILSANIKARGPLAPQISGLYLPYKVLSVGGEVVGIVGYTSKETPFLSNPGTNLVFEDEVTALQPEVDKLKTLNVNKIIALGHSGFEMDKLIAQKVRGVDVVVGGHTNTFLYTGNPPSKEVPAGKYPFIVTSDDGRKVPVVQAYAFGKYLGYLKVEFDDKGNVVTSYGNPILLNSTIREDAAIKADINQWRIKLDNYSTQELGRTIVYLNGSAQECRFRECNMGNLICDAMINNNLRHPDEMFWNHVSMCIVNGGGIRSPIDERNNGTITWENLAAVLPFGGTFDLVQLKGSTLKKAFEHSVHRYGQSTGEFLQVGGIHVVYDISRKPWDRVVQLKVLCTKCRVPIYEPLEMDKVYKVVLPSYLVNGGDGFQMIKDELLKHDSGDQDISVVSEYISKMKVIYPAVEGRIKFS
The experiment in a line: Ecto-5′-nucleotidase substrate specificity assay by capillary electrophoresis. It counts as biochemical. Conditions: 500 μM nucleoside 5′-monophosphate, 37° C., 20 min; relative to AMP set at 100%; n = 3. The protocol: Catalytically active recombinant soluble glutathione-S-transferase/ecto-5′-nucleotidase fusion protein (rat enzyme) was expressed in insect cells using the baculovirus system and purified by affinity chromatography using agarose-coupled GSH as previously described.^6 The enzyme was obtained from Prof. Dr. Herbert Zimmermann, University of Frankfurt.
Compounds were dissolved in DMSO to obtain 5.0 mM stock solutions. These were further diluted to obtain 1 mM solutions in assay buffer (10 mM Hepes, pH 7.4, 2 mM MgCl2, 1 mM CaCl2). The 1 mM solutions were further diluted in the same buffer as required for the standard calibration curves and the enzyme assays.
CE separations were carried out using a P/ACE MDQ system (Beckman Coulter Instruments, Fullerton, Calif., USA) equipped with a DAD detection system. The electrophoretic separations were carried out using an eCAP fused-silica capillary [30 cm (20 cm effective length), ×75 μm internal diameter (I.D), ×375 μm outside diameter (0.D) obtained from Beckman Coulter]. The following conditions were applied: T=25° C., λmax=232 nm, voltage=15 kV, running buffer 40 mM sodium borate buffer, pH 9.1. The capillary was washed with 0.1 M NaOH for 2 min, deionized water for 1 min, and running buffer for 1 min before each injection. Injections were made by applying 0.1 psi of pressure to the sample solution for 30 s. The amount of adenosine or other nucleosides formed was determined. The CE instrument was fully controlled through a personal computer, which operated with the analysis software 32 KARAT obtained from Beckman Coulter. Electropherograms were evaluated using the same software.
Ecto-5′-nucleotidase substrate specificity assays were performed by using capillary electrophoresis method. Enzyme substrate assays were carried out at 37° C. in a final volume of 100 μl. The reaction mixture contained 500 μM of the nucleoside 5′-monophosphate to be investigated dissolved in reaction buffer (10 mM Hepes, pH 7.4, 2 mM MgCl2, 1 mM CaCl2). The reactions were initiated by adding 10 μl of the appropriately diluted enzyme and was then allowed to proceed at 37° C. for 20 min. The reaction was stopped by heating the mixture at 99° C. for 5 min. Aliquots of 50 μl of the reaction mixture were transferred to mini CE vials and injected into the CE instrument under the conditions described above. The absorbance at 232 nm was monitored continuously and the nucleoside concentrations were determined from the area under each absorbance peak. The experiments were repeated twice with triplicate injections. Control experiments were performed in the absence of substrate and in the absence of enzyme in order to take into account the spontaneous hydrolysis of nucleoside-5′ monophosphates under the experimental conditions, which always amounted to less than 1%.
For the quantification of the dephosphorylation reaction products, we applied the internal normalization method. Thus, the individual peak areas reflected directly the relative content of a corresponding analyte. […] It was verified that in fact there were no observable differences in detector response at the used wavelength and thus no additional correction factors had to be employed for the calculation of the amount of product relative to the amount of substrate. This method is also completely independent of the amount of substrate injected into the capillary which represents 100% at zero reaction time.
Besides AMP, other nucleoside 5′-monophosphates (FIG. 1) were investigated as alternative substrates of ecto-5′-NT. All nucleotides (AMP) were used at a concentration of 500 μM in the presence of 2 mM MgCl2, 1 mM CaCl2, 10 mM Hepes, pH, 7.4, and suitably diluted ecto-5′-NT. Some of the nucleoside 5′-monophosphates were efficiently dephosphorylated to the corresponding nucleosides by the enzyme (Table 1).

[5] abbreviates: rat brain striatal membranes vs. [3H]MSX-2 (antagonist radioligand; agonist affinities underestimated).

One may read the Ki as the equilibrium dissociation constant of an inhibitor or competing ligand from its target. As for “2-(Benzylthio)adenosine-5′-monophosphate [Compound 8]”, the Ki is 927 nM in assay [1], 120 nM in assay [2] and 8560 nM in assay [3] (setting [5]).
Consider “2-(Cyclohexylethylthio)adenosine-5′-monophosphate [Compound 3]”, for which the Ki in assay [2] is 3600 nM.
In the case of “2-(Cyclohexylmethylthio)adenosine-5′-monophosphate [Compound 2]”, in assay [2], the Ki is 1700 nM.
Take “2-(Hexylthio)adenosine-5′-monophosphate [Compound 6]”: the results for the Ki in assay [1], in assay [2] and in assay [3] (setting [5]) were 256 nM, 2300 nM and 1000 nM, respectively.
On to “2-(Phenylethylthio)adenosine-5′-monophosphate [Compound 9]”, for which, in assay [2], the Ki was 1200 nM.
As to “2-(Propylthio)adenosine-5′-monophosphate [Compound 4]”, the Ki is 1270 nM in assay [1] and 1350 nM in assay [3] (rat brain striatal membranes vs. [3H]CGS21680 (agonist radioligand)).
Regarding `Nc1ncnc2c1ncn2[C@@H]1O[C@H](COP(=O)(O)O)[C@@H](O)[C@H]1O` [AMP, adenosine monophosphate, reference compound], in assay [4], the “Dephosphorylation (%) by ecto-5′-nucleotidase in comparison with AMP” value (from here on “Dephosphorylation (%)”) is 100 ± 1.15%.
As to `Nc1nc(SC2CCCCC2)nc2c1ncn2[C@@H]1O[C@H](COP(=O)(O)O)[C@@H](O)[C@H]1O` [Compound 1, 2-(Cyclohexylthio)adenosine-5′-monophosphate], the “Dephosphorylation (%)” value in assay [4] came out at 27.5 ± 1.45%.
`Nc1nc(SCC2CCCCC2)nc2c1ncn2[C@@H]1O[C@H](COP(=O)(O)O)[C@@H](O)[C@H]1O` [Compound 2, 2-(Cyclohexylmethylthio)adenosine-5′-monophosphate]: in assay [4], the “Dephosphorylation (%)” value came out at 70.5 ± 1.17%.
As for `Nc1nc(SCCC2CCCCC2)nc2c1ncn2[C@@H]1O[C@H](COP(=O)(O)O)[C@@H](O)[C@H]1O` [Compound 3, 2-(Cyclohexylethylthio)adenosine-5′-monophosphate], in assay [4], the “Dephosphorylation (%)” value was 95% and 95.7 ± 1.15%.
On the same count and under the same terms, under `CCCSc1nc(N)c2ncn([C@@H]3O[C@H](COP(=O)(O)O)[C@@H](O)[C@H]3O)c2n1` [Compound 4, 2-(Propylthio)adenosine-5′-monophosphate] stands 46.8 ± 10.5%.
Consider `C=CCSc1nc(N)c2ncn([C@@H]3O[C@H](COP(=O)(O)O)[C@@H](O)[C@H]3O)c2n1` [Compound 5, 2-(Allylthio)adenosine-5′-monophosphate], for which the “Dephosphorylation (%)” value in assay [4] is 0%.
Take `CCCCCCSc1nc(N)c2ncn([C@@H]3O[C@H](COP(=O)(O)O)[C@@H](O)[C@H]3O)c2n1` [Compound 6, 2-(Hexylthio)adenosine-5′-monophosphate]: the “Dephosphorylation (%)” value in assay [4] was 84.2 ± 2.61%.
As to `Nc1nc(SCc2ccccc2)nc2c1ncn2[C@@H]1O[C@H](COP(=O)(O)O)[C@@H](O)[C@H]1O` [Compound 8, 2-(Benzylthio)adenosine-5′-monophosphate], in assay [4], the “Dephosphorylation (%)” value is reported as 0%.
On the same count and under the same terms, under `Nc1nc(SCCc2ccccc2)nc2c1ncn2[C@@H]1O[C@H](COP(=O)(O)O)[C@@H](O)[C@H]1O` [Compound 9, 2-(Phenylethylthio)adenosine-5′-monophosphate] stands 0%.
For `C#CCSc1nc(N)c2ncn([C@@H]3O[C@H](COP(=O)(O)O)[C@@H](O)[C@H]3O)c2n1` [Example No. 10, 2-Propargylthioadenosine-5′-monophosphate], the Ki in assay [1] is 994 nM; in assay [2], 10400 nM.
